Converted amounts (≈) assume the structure as drawn. Where two headings read alike, the source gives them in different places.
Experiments:
Mtb mc^27902 pMV261 [1] = assay: microbe, parasite or virus in culture; format: cell-based; conditions: Mycobacterium tuberculosis
B. cereus NCTC 7464 = assay: Non-mycobacterial REMA assay; format: cell-based; conditions: Bacillus cereus, NCTC7464, read-out: Minimum inhibitory concentration 95%
S. pyogenes NCTC 8198 = assay: Non-mycobacterial REMA assay; format: cell-based; conditions: Streptococcus pyogenes, NCTC8198, read-out: Minimum inhibitory concentration 95%
S. agalactiae NCTC 8181 = assay: Non-mycobacterial REMA assay; format: cell-based; conditions: Streptococcus agalactiae, NCTC8181, read-out: Minimum inhibitory concentration 95%
E. faecalis NCTC 775 = assay: Non-mycobacterial REMA assay; format: cell-based; conditions: Enterococcus faecalis, NCTC775, read-out: Minimum inhibitory concentration 95%
E. faecium NCTC 7171 = assay: Non-mycobacterial REMA assay; format: cell-based; conditions: Enterococcus faecium, NCTC7171, read-out: Minimum inhibitory concentration 95%
S. aureus NCTC 2981 = assay: Non-mycobacterial REMA assay; format: cell-based; conditions: Staphylococcus aureus, NCTC2981, read-out: Minimum inhibitory concentration 95%
K. pneumoniae NCTC 9633 = assay: Non-mycobacterial REMA assay; format: cell-based; conditions: Klebsiella pneumoniae, NCTC9633, read-out: Minimum inhibitory concentration 95%
A. baumannii NCTC 12156 = assay: Non-mycobacterial REMA assay; format: cell-based; conditions: Acinetobacter baumannii, NCTC12156, read-out: Minimum inhibitory concentration 95%
P. aeruginosa DSM 19880 = assay: Non-mycobacterial REMA assay; format: cell-based; conditions: Pseudomonas aeruginosa, DSM19880, read-out: Minimum inhibitory concentration 95%
E. cloacae NCTC 10005 = assay: Non-mycobacterial REMA assay; format: cell-based; conditions: Enterobacter cloacae, NCTC10005, read-out: Minimum inhibitory concentration 95%
E. coli K12 = assay: Non-mycobacterial REMA assay; format: cell-based; conditions: Escherichia coli, read-out: Minimum inhibitory concentration 95%
Method: (§1) Bacterial minimum inhibition concentrations (MIC) were determined using the Resazurin Microtiter Assay (REMA) method according to Palomino et al.[28] Stock solutions of the tested compounds were prepared in sterile dimethyl sulfoxide (DMSO), then diluted in 7H9OPALPen^1Cyc^10(Kan^25) to obtain a final drug concentration range of 32–0.032 μg/mL. A suspension of the test Mycobacterium was cultured in 7H9OPALPen^1Cyc^10(Kan^25) containing 0.05% v/v Tween^80 for one week at 37 °C, 5% CO2. The bacterial suspension was adjusted to 0.5 McFarland and diluted in 7H9OPALPen^1Cyc^10(Kan^25) 1:25. 100 μL of the inoculum was added to each well of a 96-well microplate together with 100 μL of the compound titration. The plate was incubated at 37 °C, 5% CO2. After 5 days, 10.5 μL 0.1% (w/v) sterile resazurin (solubilised in sterile PBS containing 0.02% v/v Tween^80) was added. Reduced resazurin was detected using fluorescence (Ex/Em 530/590 nm) in a FLUOstar Optima, BMG Labtech. All titre measurements were plotted in SigmaPlot™ and 4-parameter logistic (4PL) model regressions conducted. The relative MIC95 of each curve was calculated and averaged (Table 1). Testing was performed in duplicate with two independent biological repeats. […] Though, for these cultures, dilutions were performed at 1:125 prior to inoculation of the plate and incubation for 4 h (Supplementary Table 3). Known antitubercular agents used in this study were rifampicin (RIF), isoniazid (INH), ISO, EMB, ethionamide (ETH), linezolid (LZD), delamanid (DEL) and moxifloxacin (MOX).

S. enterica NCTC 6754 = assay: Non-mycobacterial REMA assay; format: cell-based; conditions: Salmonella enterica, NCTC6754, read-out: Minimum inhibitory concentration 95%
Method: as §1

[2] = system: RAW264.7 murine macrophage cells; assay: cells; format: cell-based
[3] = system: HepG2 human liver cancer cell line; assay: MTS cytotoxicity assay, liver cells; format: cell-based; conditions: 96 h, read-out: MTS percentage survival @ 100 µM
[4] = system: AC10 hybrid adult ventricular cardiomyocytes; assay: MTS cytotoxicity assay, cardiomyocytes; format: cell-based; conditions: Homo sapiens, AC10 cardiac, 96 h, read-out: MTS percentage survival @ 100 µM
Mtb mc^27902 pMV261 [5] = assay: EtBr accumulation assay; format: cell-based, Mycobacterium tuberculosis; conditions: compound at ½ the MIC; absence or presence of glucose; 60 min
Mtb mc^27902 pMV261 [6] = format: cell-based, Mycobacterium tuberculosis
M. bovis BCG = conditions: microplate alamar blue assay; cited from earlier work
[7] = system: M. bovis BCG containing the pVVdesA3 overexpression plasmid; parameters: method as in PMID 14559907; conditions: M. bovis BCG with pVVdesA3 overexpression plasmid; microplate alamar blue assay; cited from earlier work
tuberculosis patients = system: tuberculosis patients; parameters: method as in PMID 5535617; conditions: monotherapy; after an 8-week regimen; cited from earlier work

## CC(C)CCOc1ccc(NC(=S)Nc2ccc(OCCC(C)C)cc2)cc1 [ISO, 4,4′-diisoamyloxydiphenylthiourea]
Mtb mc^27902 pMV261 [1]; mc^27902 pMV261, REMA, read-out: Mtb MIC95
  MIC: 0.2 µg/mL
Mtb mc^27902 pMV261 [1]; values used for the SI, in brackets, […], read-out: MIC95
  MIC: 0.2 µg/mL
Mtb mc^27902 pMV261 [1]; values used for the SI, […], read-out: MIC95
  MIC: 0.49 µM
B. cereus NCTC 7464
  MIC: > 32 µg/mL
S. pyogenes NCTC 8198
  MIC: > 32 µg/mL
S. agalactiae NCTC 8181
  MIC: > 32 µg/mL
E. faecalis NCTC 775
  MIC: > 32 µg/mL
E. faecium NCTC 7171
  MIC: > 32 µg/mL
S. aureus NCTC 2981
  MIC: > 32 µg/mL
K. pneumoniae NCTC 9633
  MIC: > 32 µg/mL
A. baumannii NCTC 12156
  MIC: > 32 µg/mL
P. aeruginosa DSM 19880
  MIC: > 32 µg/mL
E. cloacae NCTC 10005
  MIC: > 32 µg/mL
E. coli K12
  MIC: > 32 µg/mL
S. enterica NCTC 6754
  MIC: > 32 µg/mL
[2]; Mus musculus, RAW264.7, 96 h, RAW264.7 macrophage, 100 µM, 96 h, read-out: MTS percentage survival @ 100 µM
  viability at 100 µM: 34.5%
[2]; Mus musculus, RAW264.7 macrophages, 0 to 100 µM, read-out: IC50 (cell viability, MTS assay)
  IC50: 18.8 µM
[2]; from RAW264.7 IC50 and Mtb MIC95
  selectivity index (SI): 38
[3]
  viability at 100 µM: 95.4 ± 4.3%
[4]
  viability at 100 µM: 38.9 ± 13.9%
Mtb mc^27902 pMV261 [5]
  accumulation of EtBr: increased accumulation of EtBr
Mtb mc^27902 pMV261 [6]
  TDM and glucose monomycolate levels (TLC): decrease in TDM and glucose monomycolate
  effect on mycolic acid biosynthesis (FAMEs/MAMEs, TLC/autoradiography): mycolate depletion was observed in both the cell wall-bound and whole cell analysis
Mtb mc^27902 pMV261 [6]; at the highest concentrations, […]
  TMM levels (TLC): not observed
M. bovis BCG
  MIC: 3.0 µg/mL (≈ 7.49 µM)
[7]
  MIC: 6.0 µg/mL (≈ 15 µM)
Tuberculosis patients
  patients testing sputum negative: 25%
